From ChEMBL document CHEMBL1938244, “Synthesis, anticancer activity and apoptosis inducing ability of bisindole linked pyrrolo[2,1-c][1,4]benzodiazepine conjugates” (2012)
Activity calls are given as the source filed them. No cut-off for these calls is given here.

What was measured:
Tubulin (Homo sapiens) = Tubulin (Homo sapiens) (UniProt P68371+Q9H4B7+P0DPH7+P68366+Q13509+Q71U36+P04350+Q3ZCM7+P07437+P68363+Q9BQE3+Q6PEY2+Q13885+Q9BVA1+Q9BUF5); assay: Inhibition of tubulin polymerization in human MCF7 cells at 2 uM after 24 hrs by FITC-conjugated immunostaining assay; format: cell-based
MCF7 [1] = assay: Inhibition of HDAC1 protein expression in human MCF7 cells at 2 uM after 24 hrs by Western blotting; format: functional, cell-based
MCF7 [2] = assay: Inhibition of HDAC2 protein expression in human MCF7 cells at 2 uM after 24 hrs by Western blotting; format: functional, cell-based
MCF7 [3] = assay: Inhibition of HDAC3 protein expression in human MCF7 cells at 2 uM after 24 hrs by Western blotting; format: functional, cell-based
MCF7 [4] = assay: Inhibition of HDAC8 protein expression in human MCF7 cells at 2 uM after 24 hrs by Western blotting; format: functional, cell-based
MCF7 [5] = assay: Increase in p21 protein level in human MCF7 cells at 2 uM after 24 hrs by Western blotting; format: functional, cell-based
MCF7 [6] = assay: Induction of apoptosis in human MCF7 cells assessed as PARP-cleavage at 8 uM after 24 hrs by Western blot analysis; format: functional, cell-based
MCF7 [7] = assay: Induction of apoptosis in human MCF7 cells assessed as caspase-7 activation at 8 uM after 24 hrs by Western blot analysis; format: functional, cell-based
MCF7 [8] = assay: Anticancer activity against human MCF7 cells by SRB method; format: functional
ZR-75-1 = assay: Anticancer activity against human ZR-75-1 cells by SRB method; format: functional
A2780 = assay: Anticancer activity against human A2780 cells by SRB method; format: functional
COLO 205 = assay: Anticancer activity against human COLO205 cells by SRB method; format: functional
SiHa = assay: Anticancer activity against human SiHa cells by SRB method; format: functional
A549 = assay: Anticancer activity against human A549 cells by SRB method; format: functional
KB = assay: Anticancer activity against human KB cells by SRB method; format: functional
MCF7 [9] = assay: Anticancer activity against human MCF7 cells assessed as cell death at 2 uM after 24 hrs by MTT assay; format: functional
MCF7 [10] = assay: Induction of cell cycle arrest in human MCF7 cells assessed as accumulation of cells in G0 phase at 2 uM after 24 hrs by flow cytometry relative to untreated control; format: functional
MCF7 [11] = assay: Induction of cell cycle arrest in human MCF7 cells assessed as accumulation of cells in G1 phase at 2 uM after 24 hrs by flow cytometry relative to untreated control; format: functional
MCF7 [12] = assay: Induction of cell cycle arrest in human MCF7 cells assessed as accumulation of cells in S phase at 2 uM after 24 hrs by flow cytometry relative to untreated control; format: functional
MCF7 [13] = assay: Induction of cell cycle arrest in human MCF7 cells assessed as accumulation of cells in G2/M phase at 2 uM after 24 hrs by flow cytometry relative to untreated control; format: functional
MCF7 [14] = assay: Induction of cell cycle arrest in human MCF7 cells assessed as accumulation of cells in G0 phase at 4 uM after 24 hrs by flow cytometry relative to untreated control; format: functional
MCF7 [15] = assay: Induction of cell cycle arrest in human MCF7 cells assessed as accumulation of cells in G1 phase at 4 uM after 24 hrs by flow cytometry relative to untreated control; format: functional
MCF7 [16] = assay: Induction of cell cycle arrest in human MCF7 cells assessed as accumulation of cells in S phase at 4 uM after 24 hrs by flow cytometry relative to untreated control; format: functional
MCF7 [17] = assay: Induction of cell cycle arrest in human MCF7 cells assessed as accumulation of cells in G2/M phase at 4 uM after 24 hrs by flow cytometry relative to untreated control; format: functional
MCF7 [18] = assay: Induction of cell cycle arrest in human MCF7 cells assessed as accumulation of cells in G0 phase at 8 uM after 24 hrs by flow cytometry relative to untreated control; format: functional
MCF7 [19] = assay: Induction of cell cycle arrest in human MCF7 cells assessed as accumulation of cells in G1 phase at 8 uM after 24 hrs by flow cytometry relative to untreated control; format: functional
MCF7 [20] = assay: Induction of cell cycle arrest in human MCF7 cells assessed as accumulation of cells in S phase at 8 uM after 24 hrs by flow cytometry relative to untreated control; format: functional
MCF7 [21] = assay: Induction of cell cycle arrest in human MCF7 cells assessed as accumulation of cells in G2/M phase at 8 uM after 24 hrs by flow cytometry relative to untreated control; format: functional
MCF7 [22] = assay: Induction of cell cycle arrest in human MCF7 cells assessed as accumulation of cells in G0 phase at 2 uM after 24 hrs by flow cytometry (reference value: 2.9%); format: functional
MCF7 [23] = assay: Induction of cell cycle arrest in human MCF7 cells assessed as accumulation of cells in G1 phase at 2 uM after 24 hrs by flow cytometry (reference value: 46%); format: functional
MCF7 [24] = assay: Induction of cell cycle arrest in human MCF7 cells assessed as accumulation of cells in S phase at 2 uM after 24 hrs by flow cytometry (reference value: 14.87%); format: functional
MCF7 [25] = assay: Induction of cell cycle arrest in human MCF7 cells assessed as accumulation of cells in G2/M phase at 2 uM after 24 hrs by flow cytometry (reference value: 36.23%); format: functional
MCF7 [26] = assay: Induction of cell cycle arrest in human MCF7 cells assessed as accumulation of cells in G0 phase at 4 uM after 24 hrs by flow cytometry (reference value: 3.22%); format: functional
MCF7 [27] = assay: Induction of cell cycle arrest in human MCF7 cells assessed as accumulation of cells in G1 phase at 4 uM after 24 hrs by flow cytometry (reference value: 65.58%); format: functional
MCF7 [28] = assay: Induction of cell cycle arrest in human MCF7 cells assessed as accumulation of cells in S phase at 4 uM after 24 hrs by flow cytometry (reference value: 5.55%); format: functional
MCF7 [29] = assay: Induction of cell cycle arrest in human MCF7 cells assessed as accumulation of cells in G2/M phase at 4 uM after 24 hrs by flow cytometry (reference value: 25.65%); format: functional
MCF7 [30] = assay: Induction of cell cycle arrest in human MCF7 cells assessed as accumulation of cells in G0 phase at 8 uM after 24 hrs by flow cytometry (reference value: 3.22%); format: functional
MCF7 [31] = assay: Induction of cell cycle arrest in human MCF7 cells assessed as accumulation of cells in G1 phase at 8 uM after 24 hrs by flow cytometry (reference value: 65.58%); format: functional
MCF7 [32] = assay: Induction of cell cycle arrest in human MCF7 cells assessed as accumulation of cells in S phase at 8 uM after 24 hrs by flow cytometry (reference value: 5.55%); format: functional
MCF7 [33] = assay: Induction of cell cycle arrest in human MCF7 cells assessed as accumulation of cells in G2/M phase at 8 uM after 24 hrs by flow cytometry (reference value: 25.65%); format: functional

COc1cc2c(cc1OCCCCCOc1ccc(C(c3c[nH]c4ccccc34)c3c[nH]c4ccccc34)cc1)N=C[C@@H]1CCCN1C2=O
inhibition (Tubulin (Homo sapiens)): Active
inhibition (MCF7 [1]): Active
inhibition (MCF7 [2]): Active
inhibition (MCF7 [3]): Active
inhibition (MCF7 [4]): Active
Activity (MCF7 [5]): Active
Activity (MCF7 [6]): Active
Activity (MCF7 [7]): Active
GI50 (MCF7 [8]): 140 nM
GI50 (ZR-75-1): 120 nM
GI50 (A2780): 110 nM
GI50 (COLO 205): 26100 nM
GI50 (SiHa): 180 nM
GI50 (A549): 2400 nM
GI50 (KB): 130 nM
Activity (MCF7 [9]): 50%
Activity (MCF7 [10]): 3.57%
Activity (MCF7 [11]): 40.67%
Activity (MCF7 [12]): 9.08%
Activity (MCF7 [13]): 46.67%
Activity (MCF7 [14]): 16.11%
Activity (MCF7 [15]): 68.33%
Activity (MCF7 [16]): 6.95%
Activity (MCF7 [17]): 8.6%
Activity (MCF7 [18]): 50.15%
Activity (MCF7 [19]): 46.11%
Activity (MCF7 [20]): 2.32%
Activity (MCF7 [21]): 1.41%
Activity (MCF7 [22]): 3.96%
Activity (MCF7 [23]): 41.51%
Activity (MCF7 [24]): 9.34%
Activity (MCF7 [25]): 45.19%
Activity (MCF7 [26]): 16.45%
Activity (MCF7 [27]): 68.23%
Activity (MCF7 [28]): 6.97%
Activity (MCF7 [29]): 8.35%
Activity (MCF7 [30]): 51.96%
Activity (MCF7 [31]): 44.26%
Activity (MCF7 [32]): 2.04%
Activity (MCF7 [33]): 1.75%
